We go through nine compounds from ChEMBL document CHEMBL3414562, “Synthesis of isocryptolepine analogues and their structure-activity relationship studies as antiplasmodial and antiproliferative agents” (Eur J Med Chem, 2015).

In general, IC50 refers to the midpoint of a concentration-inhibition curve. A higher IC50 goes with a need for much substance.

The test system of data set [1] is MRC5. Nature of the data set: Cytotoxicity against human MRC5 cells by MTT assay. The data set is classed as cell-based.
Data set [2] can be described thus: Selectivity index, ratio of IC50 for human MRC5 cells to IC50 for chloroquine-resistant Plasmodium falciparum K1. The data set is classed as toxicity, cell-based. The note with it: read-out: Ratio IC50.
Data set [3] in a line: Selectivity index, ratio of IC50 for human MRC5 cells to IC50 for […]. The note with it: read-out: Ratio IC50. The class given is toxicity, cell-based.
Data set [4] is described as follows: Selectivity index, ratio of IC50 for human MRC5 cells to IC50 for chloroquine/mefloquine-resistant Plasmodium falciparum SKF58. The note with it: read-out: Ratio IC50. The class given is toxicity, cell-based.
A short description of data set [5]: Selectivity index, ratio of IC50 for human MRC5 cells to IC50 for chloroquine/mefloquine-resistant Plasmodium falciparum SRIV35. The class given is toxicity, cell-based. The settings on record: read-out: Ratio IC50.
For data set [6], the system named is MRC5. Nature of the data set: Cytotoxicity against human MRC5 cells at 144667 nM by MTT assay relative to control. The note with it: mrc5, 144.667 µM. The class given is cell-based. Background: Tetrazolium dyes change colour on reduction, which living cells bring about.
In a further data set the test system is HepG2. The experiment in a line: Cytotoxicity against human HepG2 cells by MTT assay. The data set is classed as functional, cell-based.
Data set [7] is described as follows: Cytotoxicity against human HuCCa1 cells by MTT assay. The data set is classed as functional, cell-based. The settings on record: HuCC-A1.
Data set [8] is described as follows: Cytotoxicity against human MOLT3 cells by XTT assay. The class given is functional, cell-based. The settings on record: MOLT-3.
In the next data set the test system is A549. The experiment in a line: Cytotoxicity against human A549 cells by MTT assay. The data set is classed as functional, cell-based.
Data set [9] in a line: Selectivity index, ratio of IC50 for human MRC5 cells to IC50 for human HuCCa1 cells. The class given is functional.
Data set [10] concerns Plasmodium falciparum. Nature of the data set: microbe, parasite or virus in culture. The note with it: K1.
Description: Antiplasmodial activity against chloroquine-resistant Plasmodium falciparum K1
Data set [11] has as its system Plasmodium falciparum. The experiment in a line: microbe, parasite or virus in culture. The settings on record: 3D7.
Description: Antiplasmodial activity against chloroquine-sensitive Plasmodium falciparum 3D7
The test system of data set [12] is Plasmodium falciparum. The experiment in a line: microbe, parasite or virus in culture. The settings on record: SKF58.
Data set [13] deals with Plasmodium falciparum. The experiment in a line: microbe, parasite or virus in culture. The settings on record: SRIV35.
For data set [14], the system named is MRC5. The experiment in a line: Cytotoxicity against human MRC5 cells at 72014 nM by MTT assay relative to control. The data set is classed as cell-based. The note with it: mrc5, 72.014 µM.
Data set [15] has as its system MRC5. The experiment in a line: Cytotoxicity against human MRC5 cells at 131866 nM by MTT assay relative to control. The data set is classed as cell-based. The note with it: mrc5, 131.866 µM.
Data set [16] relates to MRC5. The experiment in a line: Cytotoxicity against human MRC5 cells at 137509 nM by MTT assay relative to control. The note with it: mrc5, 137.509 µM. The class given is cell-based.
Data set [17] has as its system MRC5. The experiment in a line: Cytotoxicity against human MRC5 cells at […] uM by MTT assay relative to control. The data set is classed as cell-based. The note with it: mrc5, 91.99 µM.

`Cn1cc2c3cc(Br)ccc3nc-2c2cc(Cl)ccc21`: the IC50 with MRC5 [1] was over 145000 nM; in the data set on HepG2 it was 4830 nM; in data set [7], 30800 nM; in [8] it was 750 nM; in the data set with A549, 7030 nM; in the data set on Plasmodium falciparum [10] it was 232 nM. For the same compound, the IC50 with Plasmodium falciparum [11] stood at 182 nM; with Plasmodium falciparum [12], 162 nM; with Plasmodium falciparum [13], 171 nM. Moreover, the selectivity ratio in data set [2] is over 623; in [3], over 796; in data set [4], over 893; in data set [5], over 845. This compound showed an Activity in the data set on MRC5 [6] of 40.45%. For the same compound, the “Ratio IC50” value in data set [9] is given as over 4.7.

Consider `Cc1cccc2c3nc4ccccc4c-3cn(C)c12`, for which the half-maximal inhibitory concentration (IC50) in the data set with MRC5 [1] stood at 39500 nM; in the data set with HepG2, 2600 nM; in data set [7], 16600 nM; in data set [8], 2920 nM; in the data set with A549, 11100 nM; in the data set on Plasmodium falciparum [10], 1740 nM. Moreover, the IC50 with Plasmodium falciparum [11], in the data set on Plasmodium falciparum [12] and in the data set with Plasmodium falciparum [13] was 1570 nM in each case. Moreover, the selectivity ratio turned out to be 22.2 in data set [2], 24.6 in [3], 24.6 in data set [4] and 24.6 in data set [5]. In addition, the “Ratio IC50” value in data set [9] was 2.33.

Take `Cn1cc2c3cc(Br)ccc3nc-2c2cccc(F)c21`: the half-inhibitory concentration (IC50) with MRC5 [1] was 15300 nM; in the data set with HepG2 it was 3220 nM; in data set [7], 4480 nM; in data set [8], 1090 nM; with A549 it was 6170 nM; in the data set on Plasmodium falciparum [10], 296 nM. For the same compound, the half-inhibitory concentration (IC50) in the data set with Plasmodium falciparum [11] turned out to be 178 nM; in the data set on Plasmodium falciparum [12], 243 nM; in the data set with Plasmodium falciparum [13] it was 235 nM. Besides, the selectivity ratio in data set [2] came to 51.8; in data set [3], 86.1; in [4], 63; in data set [5], 65.2. For the same compound, in data set [9], the “Ratio IC50” value came to 3.42.

For `Cn1cc2c3cc(Br)ccc3nc-2c2ccc(F)cc21`, the IC50 in the data set on MRC5 [1] was found to be 26300 nM; with HepG2 it was 7410 nM; in data set [7] it was 10200 nM; in [8], 1260 nM; in the data set with A549, 7970 nM; in the data set with Plasmodium falciparum [10], 61.8 nM. Also, the IC50 in the data set on Plasmodium falciparum [11] was found to be 37.9 nM; in the data set on Plasmodium falciparum [12], 92.4 nM; in the data set with Plasmodium falciparum [13], 83 nM. Further, the selectivity ratio in data set [2] amounted to 425; in data set [3], 693; in data set [4], 284; in data set [5], 317. The “Ratio IC50” value in data set [9] is given as 2.58.

In the case of `Cn1cc2c3cc(Br)ccc3nc-2c2ccc(F)c(F)c21`, the IC50 with MRC5 [1] is over 72000 nM; in data set [7], 42700 nM; in data set [8] it was 17400 nM; with A549, 25000 nM; with Plasmodium falciparum [10], 1350 nM; in the data set with Plasmodium falciparum [11], 290 nM. Besides, the results for the half-inhibitory concentration (IC50) with Plasmodium falciparum [12] and in the data set on Plasmodium falciparum [13] were 9860 nM and over 2000 nM, respectively. For the same compound, the selectivity ratio in data set [2] was over 53.2; in data set [3] it was over 248; in [4] it was over 7.3. In the data set on MRC5 [14], this compound returned an Activity of 32.6%. Also, in data set [9], the “Ratio IC50” value is reported as over 1.68.

In the case of `Cn1cc2c3cc(Br)ccc3nc-2c2cc(C(F)(F)F)ccc21`, the IC50 is over 132000 nM with MRC5 [1]; 75600 nM in the data set with HepG2; 7440 nM in data set [7]; 35000 nM in data set [8]; 105000 nM in the data set with A549; 1370 nM with Plasmodium falciparum [10]. The half-inhibitory concentration (IC50) is 579 nM in the data set on Plasmodium falciparum [11], 1220 nM with Plasmodium falciparum [12] and 929 nM in the data set on Plasmodium falciparum [13]. Also, the selectivity ratio in [2] is over 96.4; in data set [3], over 228; in data set [4], over 108; in [5] it was over 142. The compound also showed an Activity in the data set with MRC5 [15] of 35.85%. Also, the “Ratio IC50” value in [9] is on record as over 17.72.

As for `Cn1cc2c3cc(Br)ccc3nc-2c2cc(OC(F)(F)F)ccc21`, the half-inhibitory concentration (IC50) with MRC5 [1] was 86600 nM; in the data set on HepG2, 8200 nM; in [7], 7010 nM; in [8], 2600 nM; with A549, 8460 nM; in the data set on Plasmodium falciparum [10], 67.9 nM. In addition, the half-maximal inhibitory concentration (IC50) with Plasmodium falciparum [11] stood at 57.7 nM; in the data set on Plasmodium falciparum [12], 108 nM; in the data set on Plasmodium falciparum [13], 108 nM. The selectivity ratio in data set [2] was determined as 1280; in data set [3], 1500; in [4], 799; in data set [5], 804. In addition, in data set [9], the “Ratio IC50” value was determined as 12.36.

In the case of `Cn1cc2c3cc(Br)ccc3nc-2c2cc(Cl)cc(F)c21`, the half-inhibitory concentration (IC50) in the data set on MRC5 [1] was over 138000 nM; with HepG2 it was 8760 nM; in [7] it was 11400 nM; in data set [8] it was 55700 nM; with Plasmodium falciparum [10], 1360 nM; in the data set on Plasmodium falciparum [11], 758 nM. For the same compound, the IC50 in the data set on Plasmodium falciparum [12] and with Plasmodium falciparum [13] was 1400 nM throughout. Moreover, the selectivity ratio in [2] was over 101; in [3] it was over 181; in data set [4], over 97.9; in data set [5], over 98.2. The same compound showed an Activity in the data set on MRC5 [16] of 34%. The “Ratio IC50” value in data set [9] is reported as over 12.07.

Regarding `COc1cccc2c1C(=O)c1c(O)c3c(c(O)c1C2=O)C[C@@](O)(C(=O)CO)C[C@@H]3O[C@H]1C[C@H](N)[C@H](O)[C@H](C)O1` [DOXORUBICIN], the IC50 is over 92000 nM in the data set with MRC5 [1], 400 nM in the data set with HepG2 and 2390 nM in [7]. This compound registered an Activity with MRC5 [17] of 37.13%.
